Results taken from US11911477B2, “Use of fructose in preparing drug for treating ischemic injury” (Beihang University, priority 2021, dated 2024).

Columns and labels:
DIV7 neurons [1] = test: CellTiter-Glo Luminescent cell viability of DIV7 neurons; type: cell-based; details: for viability of DIV7 neurons: 0, 1, 2, 4, 6, 8 and 16 mM, each compared with the 0 mM group, FIG. 12
Source text: Effects of different concentrations of fructose on the viability of DIV7 neurons were studied using a CellTiter-Glo® Luminescent cell viability test kit, and an added concentration of the fructose was explored in the cell system.

OGD-injured neurons [2] = test: CellTiter-Glo Luminescent cell viability of OGD-injured neurons; details: OGD 1.5 h, 2 mM, after 24 h, FIG. 13
Experimental: The CellTiter-Glo® Luminescent cell viability test kit was used: the neuronal cells were cultured using a 96-well plate, and OGD treatment was conducted on neurons for 1.5 h on a 7th day; fructose, fructose-1,6-bisphosphate and glycerol fructose were added each at a concentration of 2 mM; after 24 h, the cell viability was detected by the kit.

OGD-injured neurons [3] = test: Survival rate of OGD-treated neurons by MAP2 and DAPI immunofluorescence staining; details: OGD 1.5 h, 2 mM, after 24 h, FIG. 14
Experimental: Immunofluorescence staining method: the neurons were cultured for 7 d, and subjected to OGD treatment for 1.5 h; fructose, fructose-1,6-bisphosphate and glycerol fructose were added each at a concentration of 2 mM; after 24 h, MAP2 and DAPI staining were conducted.

DIV7 neurons [4] = test: IPC with fructose pathway inhibitor sorbinil: ATP and NADPH level of DIV7 neurons; type: cell-based, mice; details: fructose pathway inhibited by sorbinil, cellular level
Experimental: Secondly, to further verify effects of the fructose pathway in IPC ischemia protection, a fructose pathway inhibitor sorbinil was added at the cellular level. […] (4) Content of ATP and NADPH: cortical neurons were isolated from P0-P1 suckling mice, the neurons were inoculated on a 7th day by adding a lentiviral transfection protein vector that specifically detects ATP and a lentiviral transfection protein vector iNap that specifically detects NADPH; the neurons were fixated with 4% PFA, subjected to immunofluorescence staining, and data was collected through a confocal microscope, the fluorescence intensity of virus vector protein was counted using ImageJ, and the contents of ATP and NADPH were calculated.

MCAO rats = test: MCAO rat model: Longa behavioral score and TTC cerebral infarct area; type: in vivo; details: for area of cerebral infarction (TTC staining) / neurobehavioral characteristics (Longa scoring): 24 h
OGD-injured neurons [5] = test: Survival of OGD-injured neurons (TUNEL and MAP2 staining), fructose at different stages; type: cell-based; details: 24 h reperfusion
Experimental: (1) Cell model: the cerebral ischemic stroke was simulated using an OGD model, DIV7 primary neurons were treated with a glucose-free medium in a hypoxic box (1% O2+5% CO2+94% N2), oxygen glucose deprivation was conducted at 37° C. for 1.5 h, and the primary neurons was cultured in a normal medium for 24 h under normoxic conditions. (3) Survival of neurons: a survival state of neurons was counted by TUNEL staining and immunofluorescence staining; the neuronal cells were subjected to growing on glass coverslips, fixated with 4% PFA for 10 min, washed with PBS, and subjected to incubation in a blocking buffer for 1 h, and a MAP2 primary antibody working solution was added to conduct culture overnight at 4° C.; the cells were washed with PBS, a MAP2 secondary antibody working solution was added to incubate at room temperature for 1 h; the cells were washed with PBS, subjected to TUNEL staining, and a mounting agent containing 4′,6-diamidino-2-phenylindole (DAPI) was added for mounting. Data was collected through a focusing microscope and the number of cell deaths was counted using ImageJ. (1) Neuron survival: DIV7 neurons were divided into four groups: a control group, an OGD group (for OGD treatment), an OGD+Fru(per) group (fructose treatment during OGD treatment), and an OGD+Fru(post) group (fructose treatment in a reperfusion stage after OGD treatment). […]

OGD-injured neurons [6] = test: ATP and NADPH content of OGD-injured neurons (lentiviral sensors), fructose at different stages; type: cell-based, mice
Source text: (4) Content of ATP and NADPH: cortical neurons were isolated from P0-P1 suckling mice, the neurons were inoculated on a 7th day by adding a lentiviral transfection protein vector that specifically detects ATP and a lentiviral transfection protein vector iNap that specifically detects NADPH; the neurons were fixated with 4% PFA, subjected to immunofluorescence staining, and data was collected through a confocal microscope, the fluorescence intensity of virus vector protein was counted using ImageJ, and the contents of ATP and NADPH were calculated. By detecting an expression level of the lentiviral transfection protein vector that specifically detects ATP and the lentiviral transfection protein vector iNap that specifically detects NADPH in the primary neuron culture system, the levels are characterized for neuronal energy metabolism and redox metabolism. (2) Content of ATP and NADPH: cortical neurons were isolated from P0-P1 suckling mice, the neurons were inoculated on a 7th day by adding a lentiviral transfection protein vector that specifically detects ATP and a lentiviral transfection protein vector iNap that specifically detects NADPH; the neurons were divided into four groups: a control group, an OGD group (for OGD treatment), an OGD+Fru(per) group (fructose treatment during OGD treatment), and an OGD+Fru(post) group (fructose treatment in a reperfusion stage after OGD treatment). Reperfusion was conducted 24 h after OGD; the neurons were fixated with 4% PFA, subjected to MAP2 immunofluorescence staining to observe the content of ATP and NADPH of the neurons.

[7] = intraperitoneal injection after suture plug removal (MCAO+Fru-2)
[8] = tail vein injection after suture plug removal (MCAO+Fru-1)
[9] = fructose added in the OGD phase
[10] = fructose added in the reperfusion phase

| SMILES | viability of DIV7 neurons (DIV7 neurons [1]) | cell viability of OGD-injured neurons (OGD-injured neurons [2]) | survival rate of neurons after OGD (OGD-injured neurons [3]) | content of ATP after IPC (DIV7 neurons [4]; FIGS. 4A-B) | content of NADPH after IPC (DIV7 neurons [4]; FIGS. 5A-B) | comparison of routes of administration (tail vein vs intraperitoneal) (MCAO rats; MCAO rats, neurobehavior and infarct area) | area of cerebral infarction (TTC staining) (MCAO rats; [7]) | neurobehavioral characteristics (Longa scoring) (MCAO rats; [7]) | area of cerebral infarction (TTC staining) (MCAO rats; [8]) | neurobehavioral characteristics (Longa scoring) (MCAO rats; [8]) | concentration with better effect of improving the activity of DIV7 neuronal cells (DIV7 neurons [1]; different concentrations of fructose, FIG. 11) [mM] | neuronal death rate caused by OGD (OGD-injured neurons [5]; fructose added in the OGD phase (OGD+Fru(per))) | neuronal death rate caused by OGD (OGD-injured neurons [5]; fructose added in the reperfusion phase (OGD+Fru(post))) | ATP production of neurons (OGD-injured neurons [6]; [9]) | NADPH production of neurons (OGD-injured neurons [6]; [9]) | ATP production of neurons (OGD-injured neurons [6]; [10]) | NADPH production of neurons (OGD-injured neurons [6]; [10]) |
| --- | --- | --- | --- | --- | --- | --- | --- | --- | --- | --- | --- | --- | --- | --- | --- | --- | --- |
| O=C(COP(=O)(O)O)[C@@H](O)[C@H](O)[C@H](O)COP(=O)(O)O [reference compound] | can improve neuron viability | have a tendency to increase the viability of OGD-injured neurons | can improve the survival rate of the neurons | – | – | – | – | – | – | – | – | – | – | – | – | – | – |
| O=C1NC(=O)[C@@]2(CCOc3ccc(F)cc32)N1 [sorbinil] | – | – | – | the IPC no longer increases the contents of ATP and NADPH | the IPC no longer increases the contents of ATP and NADPH | – | – | – | – | – | – | – | – | – | – | – | – |
| O=C(CO)[C@@H](O)[C@H](O)[C@H](O)CO [fructose] | can significantly enhance viability of the neurons | can significantly increase the cell viability of OGD-injured neurons | – | – | – | tail vein injection is generally better than the intraperitoneal injection | reduce the area of cerebral infarction | can improve the neurobehavioral characteristics of MCAO rats | reduce the area of cerebral infarction | can improve the neurobehavioral characteristics of MCAO rats | 1 to 6 | can reduce the neuronal death rate caused by OGD | can reduce the neuronal death rate caused by OGD | can enhance the decrease in ATP and NADPH production of neurons caused by OGD | can enhance the decrease in ATP and NADPH production of neurons caused by OGD | can enhance the decrease in ATP and NADPH production of neurons caused by OGD | can enhance the decrease in ATP and NADPH production of neurons caused by OGD |
